Data reported in ChEMBL document CHEMBL2146470, “Novel Carboxamide-Based Allosteric MEK Inhibitors: Discovery and Optimization Efforts toward XL518 (GDC-0973)” (ACS Med Chem Lett, 2012).
pIC50: −log10 of the molar value.

Columns and labels:
[1] = Half life in Sprague-Dawley rat at 5 mg/kg, po; assay type: ADME, organism-based; parameters: dose 5 mg/kg, route oral; conditions: in vivo
[2] = Oral bioavailability in Sprague-Dawley rat at 5 mg/kg; assay type: ADME, organism-based; conditions: in vivo
[3] = Apparent permeability across MDCK cells; assay type: ADME, cell-based, Canis lupus familiaris; conditions: dog
[4] = Drug metabolism in rat liver microsomes at 15 uM after 30 mins; assay type: ADME, Microsome; conditions: read-out: Drug metabolism
[5] = Clearance in Sprague-Dawley rat at 5 mg/kg, po; assay type: ADME, organism-based; parameters: dose 5 mg/kg, route oral; conditions: in vivo
[6] = test system: Rattus norvegicus; assay: Dose normalised AUC (0 to t) in Sprague-Dawley rat at 5 mg/kg, po; assay type: ADME, organism-based; parameters: dose 5 mg/kg, route oral; conditions: in vivo
[7] = Drug metabolism in human liver microsomes at 15 uM after 30 mins; assay type: ADME, Microsome; conditions: read-out: Drug metabolism
[8] = molecular target: Dual specificity mitogen-activated protein kinase kinase 1 (Homo sapiens, UniProt Q02750)
Dual specificity mitogen-activated protein kinase kinase 1, sequence (Q02750 whole entry): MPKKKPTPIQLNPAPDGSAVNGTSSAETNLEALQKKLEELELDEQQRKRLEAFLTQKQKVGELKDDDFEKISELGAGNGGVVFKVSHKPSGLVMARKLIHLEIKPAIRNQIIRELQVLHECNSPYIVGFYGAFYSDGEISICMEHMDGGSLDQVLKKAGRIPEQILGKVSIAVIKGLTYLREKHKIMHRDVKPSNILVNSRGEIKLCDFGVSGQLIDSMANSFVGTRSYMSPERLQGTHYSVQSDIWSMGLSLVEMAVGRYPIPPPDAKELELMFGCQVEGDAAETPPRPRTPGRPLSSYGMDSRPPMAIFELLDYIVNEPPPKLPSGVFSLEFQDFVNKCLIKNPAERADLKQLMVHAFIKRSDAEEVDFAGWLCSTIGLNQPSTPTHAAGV
Description: Inhibition of MEK1-mediated ERK2 T202/Y204 phosphorylation using biotinylated MBP as substrate preincubated for 30 mins measured after 100 mins by cRAF-MEK-ERK enzyme coupled assay

[9] = molecular target: Dual specificity mitogen-activated protein kinase kinase; MEK1/2 (Homo sapiens, UniProt P36507+Q02750)
Description: Inhibition of MEK-mediated ERK T202/Y204 phosphorylation in human MDA-MB-231T cells after 1 hr by immunoblotting

## CCNCC1(O)CN(C(=O)c2ccc(F)c(F)c2Nc2ccc(I)cc2F)C1
[1]
  half-life: 5.4 h
[2]
  bioavailability: 101%
[3]
  Papp: 20.7 ×10⁻⁶ cm/s
[4]
  metabolised at 0.5 h, 15 µM: 31.5%
[5]
  CL/F: 35 mL/min/kg
[6]
  AUCt/dose: 0.85 µM·h/mg/kg
[7]
  metabolised at 0.5 h, 15 µM: 46.3%

## C[C@@H](N)C1(O)CN(C(=O)c2ccc(F)c(F)c2Nc2ccc(I)cc2F)C1
[8]
  pIC50: 7.80
[9]
  IC50: 164 nM

## CC(C)NCC1(O)CN(C(=O)c2ccc(F)c(F)c2Nc2ccc(I)cc2F)C1
[1]
  half-life: 4.9 h
[2]
  bioavailability: 86%
[3]
  Papp: 21 ×10⁻⁶ cm/s
[4]
  metabolised at 0.5 h, 15 µM: 40.5%
[5]
  CL/F: 99.3 mL/min/kg
[6]
  AUCt/dose: 0.25 µM·h/mg/kg
[7]
  metabolised at 0.5 h, 15 µM: 35.8%

## C[C@H](N)C1(O)CN(C(=O)c2ccc(F)c(F)c2Nc2ccc(I)cc2F)C1
[8]
  pIC50: 8.28
[1]
  half-life: 11.4 h
[2]
  bioavailability: 58%
[3]
  Papp: 9.9 ×10⁻⁶ cm/s
[9]
  IC50: 46 nM
[4]
  metabolised at 0.5 h, 15 µM: -4.5%
[5]
  CL/F: 13.3 mL/min/kg
[6]
  AUCt/dose: 1.03 µM·h/mg/kg
[7]
  metabolised at 0.5 h, 15 µM: 2.6%

## O=C(c1ccc(F)c(F)c1Nc1ccc(I)cc1F)N1CC(O)(CO)C1
[8]
  pIC50: 7.57
[9]
  IC50: 29 nM

## CC(C)(C)NCC1(O)CN(C(=O)c2ccc(F)c(F)c2Nc2ccc(I)cc2F)C1
[8]
  pIC50: 8.32
[9]
  IC50: 11 nM

## O=C(c1ccc(F)c(F)c1Nc1ccc(I)cc1F)N1CC(O)C1
[1]
  half-life: 1.5 h
[2]
  bioavailability: 19%
[3]
  Papp: 39.9 ×10⁻⁶ cm/s
[4]
  metabolised at 0.5 h, 15 µM: 80.1%
[5]
  CL/F: 139 mL/min/kg
[6]
  AUCt/dose: 0.05 µM·h/mg/kg
[7]
  metabolised at 0.5 h, 15 µM: 30.8%
